Experimental findings from patent publication US9474763B2, “Compositions and methods for amelioration and prevention of drug-induced toxicity” (priority 2012, dated 2016) are described below.

Experiment [1] is described as follows: Body weight of fasted mice given APAP (weight ratio / difference between days). Type of experiment: in vivo.
Text: Table 9 presents the effect of each combination on body weight loss, as determined by the ratio of the mice body weight between Day 0 and Day 2.
Table 12 presents the effect of each combination on body weight loss, as determined by the ratio of the mice body weight between Day 0 and Day 2 and by the difference in the mice body weight between Day 1 (immediately after administration of APAP with the different combinations and before food was returned) and Day 2.
Table 18 presents the effect of each combination on body weight, as determined by the difference in the mice body weight between Day 1 (immediately after administration of APAP with the different combinations and before food was returned) and Day 2.
This combination was tested for its effect on toxicity induced by APAP using the procedure described in Example 1 above with several modifications, as described below. Mice were allocated into four groups of six mice each, as detailed in Table 19 below. Food was taken on the afternoon (18:00) of Day 0. Mice were orally administered APAP 15 hours later (9:00 next morning, Day 1) by gavage administration. NAC was administered PO with APAP. MSM+IB were administered 1.5 h later. Following another 1.5 h, PC was administered. Food was returned 3.5 h after APAP administration (Day 1). Weight was determined three times: on Day 0 before food was taken, after over-night fasting (Day 1, just before APAP administration) and before sacrifice (Day 2, 24 hours after APAP administration).
For experiment [2], the system named is ConA-activated splenocytes. The experiment in a line: IFN-γ secretion by ConA-activated splenocytes from treated mice (ELISA). Type of experiment: cell-based. The conditions noted are these: FIG. 5; groups A, B, C, D of Table 24; 5 μg ConA, 20 h; p=NS. On the procedure:
After mice were sacrificed, spleens from five mice from each group were taken and splenocytes were isolated by the following procedure: Isolation of splenocytes: Spleens were stored in RPMI-1640 medium supplemented with FCS. Spleens were crushed through a 70-μm nylon cell strainer (Falcon) and centrifuged (1,250 rpm for 7 min.). Red blood cells were lysed in 1 ml of cold 155 mM ammonium chloride lysis buffer. Splenocytes were washed and resuspended in 1 ml of RPMI supplemented with FCS. The viability of cells as assessed by trypan blue exclusion exceeded 90%. Next, splenocytes (1×10^6 per mouse, per well, in duplicates) were moved into a 24 well plate containing RPMI-1640 supplemented with 10% FCS, 1% penicillin/streptomycin (P/S), 1% glutamine, 1% sodium pyruvate and 1% non-essential amino acid. […] After incubation cells from all wells were moved to Eppendorff tubes and centrifuged for 5 minutes. Then supernatants were collected and freezed in −80° C. until assayed for IFN-γ by ELISA. Cytokine determination: Levels of IFN-γ were determined by “sandwich” ELISA using commercial kit according to the manufacturer's instructions (Quantikine, R&D Systems, Minneapolis, Minn., USA).
A general note: In an ELISA, binding on a coated surface is turned into a signal by an enzyme label.

In experiment [3] the test system is toxicity induced by APAP. The conditions noted are these: for effect on liver enzymes serum levels: Example 2, Tables 3 and 4, 0.1-0.4 mg/mouse with APAP 4 mg; for beneficial effect on acetaminophen-induced liver toxicity: mice, administered together with, or following, large dosage of acetaminophen. The protocol: IB was tested for its effect on toxicity induced by APAP in comparison to NAC using the following procedure: Mice were allocated into four groups of six mice each, as described in Table 1 below. The mice received sub-lethal hepatotoxic doses of APAP, causing liver damage equivalent to consumption of approximately 10 gr APAP (20 caplets of 500 mg) per 70 kg man.
Food was taken on the afternoon (18:00) of Day 0. Mice were orally administered APAP, APAP+IB or APAP+NAC 15 h hours later (9:00 next morning, Day 1) by gavage administration. A total of 350 μl were administered, containing the different components in the desired concentrations in PBS. Food was returned 2 h after APAP administration (Day 1). For all groups, mice were weighted daily, and blood samples were taken 24 h hours after APAP administration (Day 2). Serum levels of the liver enzymes aspartate aminotransferase (AST) and alanine aminotransferase (ALT) were measured using a Reflovet® Plus clinical chemistry analyzer (Roche Diagnostics, GmbH, Mannheim, Germany). Serum samples were diluted before the measurements, as needed.
The following combinations were tested using the same procedure described in Example 1 above, and compared to 4 mg APAP+3 or 3.5 mg NAC: […]
This combination was tested for its effect on toxicity induced by APAP using the procedure described in Example 1 above. […]
Mice were treated according to the procedure describe in Example 1 above.

Experiment [4] relates to toxicity induced by APAP. The experiment in a line: Liver biopsy histology (H&E) 24 h after APAP administration. It counts as in vivo, mice. On the procedure:
In addition, liver biopsies were performed. For histopathology, livers from individual mice were fixed in 10% formaldehyde solution and kept at room temperature until use. The tissue blocks were then embedded in paraffin, […] sections were cut and stained with hematoxylin and eosin (H&E) for morphological examination. […] Improved liver architecture with no evidence for cellular damage and necrosis can be seen in all treated groups.

[5] abbreviates: Table 12, per mouse APAP 4 mg, NAC 3.5 mg, PC 0.9 mg after 3 h.
Setting [6] is: Table 15, APAP 4 mg/mouse alone or + NAC 3.5 mg, PC 0.9 mg after 3 h.
The mark [7] stands for this setting: Table 15, APAP 4.6 mg/mouse alone or + NAC 3.5 mg, PC 0.9 mg after 3 h.
Where [8] appears, read: Table 21, APAP 7 mg/mouse alone or + NAC 3.5 mg/mouse.
[9] abbreviates: Table 2, serum 24 h after APAP, PO, APAP 4 mg/mouse alone or + NAC 3 mg/mouse.
[10] abbreviates: Table 3, 24 h, PO, APAP 4 mg/mouse alone or + NAC 3 mg/mouse.
Setting [11] is: Table 4, 24 h, PO, APAP 4 mg/mouse alone or + NAC 3.5 mg/mouse.
Setting [12] is: Table 6, 24 h, PO, APAP 4 mg/mouse alone or + NAC 3.5 mg/mouse.
Setting [13] is: Table 8, 24 h, PO, APAP 4 mg/mouse alone or + NAC 3 mg/mouse.
The mark [14] stands for this setting: Table 11, 24 h, PO, per mouse APAP 4 mg, NAC 3.5 mg, PC 0.9 mg after 3 h.
Where [15] appears, read: Table 14, 24 h, PO, APAP 4 mg/mouse alone or + NAC 3.5 mg, PC 0.9 mg after 3 h.
[16] abbreviates: Table 14, 24 h, PO, APAP 4.6 mg/mouse alone or + NAC 3.5 mg, PC 0.9 mg after 3 h.
Where [17] appears, read: Table 17, 24 h, PO, per mouse APAP 4 mg, NAC 3.5 mg, MSM 1.5 mg.
Setting [18] is: Table 20, 24 h, PO, APAP 7 mg/mouse alone or + NAC 3.5 mg/mouse.
The mark [19] stands for this setting: Table 23, 24 h, PO, per mouse APAP 4 mg, MSM 0.15 mg, IB 0.1 mg.
Setting [20] is: Table 27, 24 h, PO, per mouse APAP 4.6 mg, NAC/Cys/Met 3.5 mg, PC 0.9 mg, MSM 0.2 mg, IB 0.1 mg.
[21] abbreviates: Table 30, APAP 4.6 mg with NAC/Cys/Met 3.5 mg, MSM 0.1 mg + IB 0.1 mg after 1.5 h, PC 0.9 mg after 3 h.
The mark [22] stands for this setting: Table 33, 24 h, PO, per mouse APAP 4.6 mg, NAC/Cys/Met 3.5 mg.

Where two headings read alike, the source gives them in different places.

For `CC(=O)Nc1ccc(O)cc1` [APAP, N-(4-hydroxyphenyl)acetamide], the “decrease in body weight during the two days of the experiment” value in experiment [1] (Example 4, Table 9, APAP 4 mg/mouse only) is 6%; in experiment [1] (Example 8, Table 28, APAP 4.6 mg only), “more than 8%”; in experiment [1] (Example 8, Table 31, APAP 4.6 mg only), “more than 8%”; in experiment [1] (Example 8, Table 34, APAP 4.6 mg only), “more than 6%”. The “Weight ratio Day 0-Day 2” value was determined as 94.17% in experiment [1] (Table 9, APAP 4 mg/mouse alone or + NAC 3 mg/mouse, PO); 91.59% in experiment [1] (Table 28, per mouse APAP 4.6 mg, NAC/Cys/Met 3.5 mg, PC 0.9 mg, MSM 0.2 mg, IB 0.1 mg); 91.23% in experiment [1] (Table 31, APAP 4.6 mg with NAC/Cys/Met 3.5 mg, MSM 0.1 mg + IB 0.1 mg after 1.5 h, PC 0.9 mg after 3 h); 93.26% in experiment [1] (Table 34, per mouse APAP 4.6 mg, NAC/Cys/Met 3.5 mg). In addition, the “Weight difference Day 1 − Day 2” value is 1.17 in experiment [1] (setting [5]); 2.07 in experiment [1] (setting [6]); 1.02 in experiment [1] (setting [7]); 1.05 in experiment [1] (Table 18, per mouse APAP 4 mg, NAC 3.5 mg, MSM 1.5 mg); −0.45 in experiment [1] (setting [8]). Also, the “Weight ratio Day 1-Day 2” value was found to be 105% in experiment [1] (setting [5]), 108% in experiment [1] (setting [6]), 104% in experiment [1] (setting [7]) and 98% in experiment [1] (setting [8]). Further, in experiment [2], the “IFN-γ levels secreted by ConA-activated splenocytes” value was determined as 259 pg/mL. Further, the “ALT (average ± std. dev.)” value in experiment [3] (setting [9]) is on record as 14,360 ± 4,370.52 IU/L; in experiment [3] (setting [10]), 5,617.50 ± 1,832.77 IU/L; in experiment [3] (setting [11]), 8,880.00 ± 2,624.31 IU/L; in experiment [3] (setting [12]), 7,790.0 ± 2,175.9 IU/L; in experiment [3] (setting [13]), 6,421.67 ± 2,914.38 IU/L; in experiment [3] (setting [14]), 7,530.00 ± 2,339.06 IU/L. Besides, the “ALT (average ± std. dev.)” value was 5,739.25 ± 2,536.44 IU/L in experiment [3] (setting [15]); 7,772.50 ± 1,771.00 IU/L in experiment [3] (setting [16]); 9,040 ± 3,472.64 IU/L in experiment [3] (setting [17]); 20,160.00 ± 9,678.28 IU/L in experiment [3] (setting [18]); 8,918.00 ± 2,955.74 IU/L in experiment [3] (setting [19]); 10285.00 ± 4435.22 IU/L in experiment [3] (setting [20]). Moreover, the “ALT (average ± std. dev.)” value in experiment [3] (setting [21]) stood at 11210.83 ± 7589.19 IU/L; in experiment [3] (setting [22]), 9002.50 ± 4211.03 IU/L. In addition, the “AST (average ± std. dev.)” value in experiment [3] (setting [9]) is recorded as 18,920.00 ± 12,192.04 IU/L; in experiment [3] (setting [10]), 3,672.67 ± 1,965.99 IU/L; in experiment [3] (setting [11]) it was 5,848.67 ± 1,993.43 IU/L; in experiment [3] (setting [12]) it was 4,883.3 ± 1,549.4 IU/L; in experiment [3] (setting [13]) it was 3,686.67 ± 2,168.08 IU/L; in experiment [3] (setting [14]), 4,988.67 ± 878.44 IU/L. The “AST (average ± std. dev.)” value in experiment [3] (setting [15]) is given as 4,374.00 ± 2,384.21 IU/L; in experiment [3] (setting [16]), 6,310.00 ± 2,127.07 IU/L; in experiment [3] (setting [17]), 6,560 ± 2,618.34 IU/L; in experiment [3] (setting [18]) it was 20,001.00 ± 11,998.16 IU/L; in experiment [3] (setting [19]), 6,586.67 ± 4,204.58 IU/L; in experiment [3] (Table 25, 24 h, PO, per mouse APAP 4 mg, MSM 0.25 mg, IB 0.1 mg) it was 4,303.33 ± 2,163.30 IU/L. The “AST (average ± std. dev.)” value in experiment [3] (setting [20]) stood at 7796.00 ± 5000.46 IU/L; in experiment [3] (setting [21]) it was 10577.33 ± 11375.63 IU/L; in experiment [3] (setting [22]), 5684.00 ± 2307.64 IU/L. In addition, the “histological liver sections” value in experiment [4] (FIG. 1, groups of Table 5, 24 h after APAP 4 mg/mouse) is reported as “diffuse damage to hepatocytes”; in experiment [4] (FIG. 2, groups of Table 7, 24 h after APAP 4 mg/mouse), “diffuse damage to hepatocytes”; in experiment [4] (FIG. 3, groups of Table 10, 24 h after APAP 4 mg/mouse) it was “diffuse damage to hepatocytes”; in experiment [4] (FIG. 4, groups of Table 16, 24 h after APAP 4 mg/mouse), “diffuse damage to hepatocytes”; in experiment [4] (FIG. 6, groups of Table 26, 24 h after APAP 4.6 mg/mouse) it was “diffuse damage to hepatocytes”; in experiment [4] (FIG. 7, groups of Table 29, 24 h after APAP 4.6 mg/mouse), “diffuse damage to hepatocytes”. In addition, the “histological liver sections” value in experiment [4] (FIG. 8, groups of Table 32, 24 h after APAP 4.6 mg/mouse) is “diffuse damage to hepatocytes”.
Regarding `COc1cc([C@H]2Oc3ccc([C@H]4Oc5cc(O)cc(O)c5C(=O)[C@@H]4O)cc3O[C@@H]2CO)ccc1O` [IA, Isosilybin A], in experiment [3], the “effect on liver enzymes serum levels” value was “ineffective in reducing liver enzymes serum levels” and the “beneficial effect on acetaminophen-induced liver toxicity” value was “did not show a beneficial effect”.
As to `COc1cc([C@@H]2Oc3cc([C@H]4Oc5cc(O)cc(O)c5C(=O)[C@@H]4O)ccc3O[C@H]2CO)ccc1O` [silybin B], in experiment [3], the “effect on liver enzymes serum levels” value was “ineffective in reducing liver enzymes serum levels” and the “beneficial effect on acetaminophen-induced liver toxicity” value was “did not show a beneficial effect”.
